The source of these data is patent publication US9365615B2, “Cross-linked peptides containing non-peptide cross-linked structure, method for synthesizing cross-linked peptides, and novel organic compound used in method” (JITSUBO Co., Ltd., priority 2013, dated 2016).

One series has as its system carboxy peptidase. As to the kind of experiment: Resistance to peptidase: decomposition by carboxy peptidase (HPLC). It is filed as in vitro ADME. The conditions noted are these: isolated carboxy peptidase (SIGMA); 1 U/ml enzyme in PBS, 37° C., peptide 0.2 mg/ml; time at which half of the peptide was decomposed; read-out: half period by carboxy peptidase (t1/2). Here is the method:
(§1) Resistance to a peptidase of a peptide of the present invention was investigated using a carboxy peptidase and chymotrypsin. Resistance to a peptidase was measured as described below.
A carboxy peptidase purchased from SIGMA was treated with PBS to prepare an enzyme solution of 1 U/ml, which was then kept warm at 37° C. in a water bath. Then, a peptide solution having a concentration adjusted to 5 mg/ml with DMSO: pure water=1:1 mixed solvent was treated with PBS(−) to obtain a concentration of 1 mg/ml, and the enzyme solution and the peptide solution were mixed at 4:1 so as to give a peptide final concentration of 0.2 mg/ml. Thereafter, these were reacted quickly at 37° C. With time, the reaction solution was sampled each in an amount of 0.1 ml, and a reaction stopping solution (25% TFA in acetonitrile, 20 μL) was added to stop the reaction. Samples were analyzed by HPLC, and decomposition of a peptide by the peptidase was measured. Sampling was conducted at 0, 0.5 minutes, 1 minute and 2 minutes, and when decomposition of […] or more was not obtained at 2 minutes, sampling was conducted further at 0.5 hours, 1 hour, 3 hours, additionally, sometimes at 6 hours, and for peptides stable for a long period, sampling was conducted in a range of 24 hours to 168 hours according to demands. Time at which half of the peptide added was decomposed was measured.

The target in another series is T1, chymotrypsin (Bos taurus, UniProt P00766).
T1 construct: purchased SIGMA
As to the kind of experiment: Resistance to peptidase: decomposition by chymotrypsin (HPLC). The class given is in vitro ADME. The conditions noted are these: isolated chymotrypsin (SIGMA), pH 8; 4 U/ml enzyme in 0.1M Tris-HCl (pH8.0), 37° C., peptide 0.2 mg/ml; time at which half of the peptide was decomposed; read-out: half period by chymotrypsin (t1/2). As to the method:
as §1
Chymotrypsin purchased from SIGMA was treated with 0.1M Tris-HCl (pH8.0) to prepare an enzyme solution of 4 U/ml, which was then kept warm at 37° C. in a water bath. Then, a peptide solution treated with DMSO: pure water=1:1 to obtain a concentration of 5 mg/ml was treated with 0.1M Tris-HCl (pH8.0) to give a concentration of 1 mg/ml, and the enzyme solution and the peptide solution were mixed at 4:1 so as to give a peptide final concentration of 0.2 mg/ml. Thereafter, these were reacted quickly at 37° C. With time, the reaction solution was sampled each in an amount of 0.1 ml, and a reaction stopping solution (25% TFA in acetonitrile, 20 μL) was added to stop the reaction. Samples were analyzed by HPLC, and decomposition of a peptide by chymotrypsin was measured. Sampling was conducted at 0, 0.5 minutes, 1 minute and 2 minutes, and when decomposition of 50% or more was not obtained at 2 minutes, sampling was conducted further at 0.5 hours, 1 hour, 3 hours, and time at which half of the peptide added was decomposed was measured.

Each structure is given as a SMILES string. *1 amine or outer side, *2 acyl side, *3 side chain or, on linkers, in order; H or OH if unused. Where a SMILES comes first, the peptide text is derived from it. Bridges are numbered along the chain shown (N, C = ends). X1 = O=C(C[*:2])[*:1]

Consider `CC(=O)N1CCCCN(CC(=O)N[C@@H](Cc2ccc(O)cc2)C(=O)O)C(=O)[C@H](CC(C)C)NC(=O)[C@H](Cc2ccc(O)cc2)NC(=O)[C@H](CCC(N)=O)NC(=O)[C@H](CO)NC(=O)[C@H](Cc2c[nH]c3ccccc23)NC(=O)CN(C(=O)[C@@H](N)Cc2ccc(O)cc2)CCCC1` [Bdev-21], for which the results for the half-life at 0.2 mg/ml with carboxy peptidase and at chymotrypsin were 14.6 min and 0.95 min, respectively.
The corresponding values for `COCCOCCOCCOCCC(=O)N1CCCC[C@H](NC(=O)[C@@H](N)Cc2ccc(O)cc2)C(=O)N[C@@H](Cc2c[nH]c3ccccc23)C(=O)N[C@@H](CO)C(=O)N[C@@H](CCC(N)=O)C(=O)N[C@@H](Cc2ccc(O)cc2)C(=O)N[C@@H](CC(C)C)C(=O)N(CC(=O)N[C@@H](Cc2ccc(O)cc2)C(=O)O)CCCC1` [Bdev-29] are 15.7 min and 3.73 min.
For `CCCCC(=O)N1CCCC[C@H](NC(=O)[C@@H](N)Cc2ccc(O)cc2)C(=O)N[C@@H](Cc2c[nH]c3ccccc23)C(=O)N[C@@H](CO)C(=O)N[C@@H](CCC(N)=O)C(=O)N[C@@H](Cc2ccc(O)cc2)C(=O)N[C@@H](CC(C)C)C(=O)N(CC(=O)N[C@@H](Cc2ccc(O)cc2)C(=O)O)CCCC1` [Bdev-28], in that order: 21.7 min and 2.9 min.
The corresponding values for `CC(=O)N1CCCC[C@@H](C(=O)N[C@@H](Cc2ccc(O)cc2)C(=O)O)NC(=O)[C@H](CC(C)C)NC(=O)[C@H](Cc2ccc(O)cc2)NC(=O)[C@H](CCC(N)=O)NC(=O)[C@H](CO)NC(=O)[C@H](Cc2c[nH]c3ccccc23)NC(=O)[C@@H](NC(=O)[C@@H](N)Cc2ccc(O)cc2)CCCC1` [Bdev-25] are 2.63 min and 1.85 min.
For the molecule `CCC(=O)N1CCCC[C@H](NC(=O)[C@@H](N)Cc2ccc(O)cc2)C(=O)N[C@@H](Cc2c[nH]c3ccccc23)C(=O)N[C@@H](CO)C(=O)N[C@@H](CCC(N)=O)C(=O)N[C@@H](Cc2ccc(O)cc2)C(=O)N[C@@H](CC(C)C)C(=O)N(CC(=O)N[C@@H](Cc2ccc(O)cc2)C(=O)O)CCCC1` [Bdev-27], the half-life at 0.2 mg/ml was found to be 15 min with carboxy peptidase and 4.37 min on chymotrypsin.
Take `CC(C)C[C@@H]1NC(=O)[C@H](Cc2ccc(O)cc2)NC(=O)[C@H](CCC(N)=O)NC(=O)[C@H](CO)NC(=O)[C@H](Cc2c[nH]c3ccccc23)NC(=O)[C@@H](NC(=O)[C@@H](N)Cc2ccc(O)cc2)CCCCNC(=O)CSC[C@@H](C(=O)N[C@@H](Cc2ccc(O)cc2)C(=O)O)NC1=O` [Comp. 1, reference compound] (H-YKWSQYLCY-OH; linker 2-8 via X1): the half-life at 0.2 mg/ml came out at 0.72 min in the series on carboxy peptidase and 0.45 min at chymotrypsin.
Regarding `COCCOCCOCCOCCOCCOCCOCCOCCC(=O)N1CCCC[C@H](NC(=O)[C@@H](N)Cc2ccc(O)cc2)C(=O)N[C@@H](Cc2c[nH]c3ccccc23)C(=O)N[C@@H](CO)C(=O)N[C@@H](CCC(N)=O)C(=O)N[C@@H](Cc2ccc(O)cc2)C(=O)N[C@@H](CC(C)C)C(=O)N(CC(=O)N[C@@H](Cc2ccc(O)cc2)C(=O)O)CCCC1` [Bdev-30], the figures for the half-life at 0.2 mg/ml in the series with carboxy peptidase and at chymotrypsin were 19.2 min and 3.66 min, respectively.
For `CC(C)C[C@@H]1NC(=O)[C@H](Cc2ccc(O)cc2)NC(=O)[C@H](CCC(N)=O)NC(=O)[C@H](CO)NC(=O)[C@H](Cc2c[nH]c3ccccc23)NC(=O)[C@@H](NC(=O)[C@@H](N)Cc2ccc(O)cc2)CCCCNCCCCN(CC(=O)N[C@@H](Cc2ccc(O)cc2)C(=O)O)C1=O` [Bdev8], the half-life at 0.2 mg/ml with carboxy peptidase came to 2.79 min; at chymotrypsin it was 1.26 min.
Regarding `CC(=O)N1CCCC[C@H](NC(=O)[C@@H](N)Cc2ccc(O)cc2)C(=O)N[C@@H](Cc2c[nH]c3ccccc23)C(=O)N[C@@H](CO)C(=O)N[C@@H](CCC(N)=O)C(=O)N[C@@H](Cc2ccc(O)cc2)C(=O)N[C@@H](CC(C)C)C(=O)N(CC(=O)N[C@@H](Cc2ccc(O)cc2)C(=O)O)CCCC1` [Bdev2], the half-life at 0.2 mg/ml was 18.7 min in the series on carboxy peptidase and 1.4 min on chymotrypsin.
The corresponding values for `CC(=O)N[C@@H](Cc1ccc(O)cc1)C(=O)N[C@H]1CCCCN(C(C)=O)CCCCN(CC(=O)N[C@@H](Cc2ccc(O)cc2)C(=O)O)C(=O)[C@H](CC(C)C)NC(=O)[C@H](Cc2ccc(O)cc2)NC(=O)[C@H](CCC(N)=O)NC(=O)[C@H](CO)NC(=O)[C@H](Cc2c[nH]c3ccccc23)NC1=O` [Bdev5] are 3.34 min and 0.39 min.
On to `CC(C)C[C@@H]1NC(=O)[C@H](Cc2ccc(O)cc2)NC(=O)[C@H](CCC(N)=O)NC(=O)[C@H](CO)NC(=O)[C@H](Cc2c[nH]c3ccccc23)NC(=O)[C@@H](NC(=O)[C@@H](N)Cc2ccc(O)cc2)CSSC[C@@H](C(=O)N[C@@H](Cc2ccc(O)cc2)C(=O)O)NC1=O` [STD, reference compound], for which the half-life at 0.2 mg/ml was determined as 0.45 min in the series with carboxy peptidase and 0.4 min on chymotrypsin.
The corresponding values for `CC(=O)N[C@@H](Cc1ccc(O)cc1)C(=O)N[C@H]1CCCCNCCCCN(CC(=O)N[C@@H](Cc2ccc(O)cc2)C(=O)O)C(=O)[C@H](CC(C)C)NC(=O)[C@H](Cc2ccc(O)cc2)NC(=O)[C@H](CCC(N)=O)NC(=O)[C@H](CO)NC(=O)[C@H](Cc2c[nH]c3ccccc23)NC1=O` [Bdev6] are 2.47 min and 2.09 min.
